# From ChEMBL document CHEMBL1759950, “Design, synthesis and cytotoxic activities of novel β-amino alcohol derivatives” (Bioorg Med Chem Lett, 2011)
# Legend:
# Format in all cases: functional, cell-based
# [1] = test system: MCF7; experiment: Cytotoxicity against human MCF7 cells by MTT assay
# [2] = test system: A549; experiment: Cytotoxicity against human A549 cells by MTT assay
# [3] = test system: HL-60; experiment: Cytotoxicity against human HL60 cells by MTT assay
# [4] = test system: SW480; experiment: Cytotoxicity against human SW480 cells by MTT assay
# [5] = test system: SMMC-7721; experiment: Cytotoxicity against human SMMC7721 cells by MTT assay
SMILES,IC50 [1] [µM],IC50 [2] [µM],IC50 [3] [µM],IC50 [4] [µM],IC50 [5] [µM]
OC[C@H](Cc1c[nH]c2ccccc12)NCc1c2ccccc2cc2ccccc12,> 40,> 40,> 40,> 40,> 40
CC(C)(O)[C@H](Cc1c[nH]c2ccccc12)NCc1c2ccccc2cc2ccccc12,12.5,11,9.55,11.7,13.4
CCC(O)(CC)[C@H](Cc1c[nH]c2ccccc12)NCc1c2ccccc2cc2ccccc12,24.3,11.6,12.2,> 40,13
CCCC(O)(CCC)[C@H](Cc1c[nH]c2ccccc12)NCc1c2ccccc2cc2ccccc12,23.9,10.9,13.2,> 40,17.3
CCCCC(O)(CCCC)[C@H](Cc1c[nH]c2ccccc12)NCc1c2ccccc2cc2ccccc12,> 40,> 40,> 40,> 40,> 40
Cn1cc(C[C@@H](CO)NCc2c3ccccc3cc3ccccc23)c2ccccc21,16.6,16.5,4.48,13.5,15
Cn1cc(C[C@H](NCc2c3ccccc3cc3ccccc23)C(C)(C)O)c2ccccc21,15.2,11.8,4.78,15.1,15.5
CCC(O)(CC)[C@H](Cc1cn(C)c2ccccc12)NCc1c2ccccc2cc2ccccc12,> 40,> 40,> 40,> 40,> 40
CCCC(O)(CCC)[C@H](Cc1cn(C)c2ccccc12)NCc1c2ccccc2cc2ccccc12,> 40,> 40,> 40,> 40,> 40
CCCCC(O)(CCCC)[C@H](Cc1cn(C)c2ccccc12)NCc1c2ccccc2cc2ccccc12,> 40,> 40,> 40,> 40,> 40
CCn1cc(C[C@@H](CO)NCc2c3ccccc3cc3ccccc23)c2ccccc21,14.9,16.5,6.18,17.4,17.1
CCn1cc(C[C@H](NCc2c3ccccc3cc3ccccc23)C(C)(C)O)c2ccccc21,13.9,15,5.44,17.6,13.6
CCn1cc(C[C@H](NCc2c3ccccc3cc3ccccc23)C(O)(CC)CC)c2ccccc21,> 40,> 40,> 40,> 40,> 40
CCCC(O)(CCC)[C@H](Cc1cn(CC)c2ccccc12)NCc1c2ccccc2cc2ccccc12,> 40,> 40,> 40,> 40,> 40
CCCCC(O)(CCCC)[C@H](Cc1cn(CC)c2ccccc12)NCc1c2ccccc2cc2ccccc12,> 40,> 40,> 40,> 40,> 40
CC(=O)N(Cc1c2ccccc2cc2ccccc12)[C@H](CO)Cc1c[nH]c2ccccc12,16.1,15.2,3.64,17.3,14.1
CC(=O)N(Cc1c2ccccc2cc2ccccc12)[C@@H](Cc1c[nH]c2ccccc12)C(C)(C)O,15.6,14.5,6.49,17.2,12
O=C(c1ccccc1)N(Cc1c2ccccc2cc2ccccc12)[C@H](CO)Cc1c[nH]c2ccccc12,17.4,13.2,7.03,30.7,20.7
CC(C)(O)[C@H](Cc1c[nH]c2ccccc12)N(Cc1c2ccccc2cc2ccccc12)C(=O)c1ccccc1,> 40,> 40,> 40,> 40,> 40
